{"source": "paper PMC6095874", "about": "“Discovery of cationic nonribosomal peptides as Gram-negative antibiotics through global genome mining” (Nature Communications, 2018)", "key": {"[1]": {"test_system": "Escherichia coli ATCC 25922", "assay": "microbe, parasite or virus in culture", "assay_type": "cell-based", "protocol": "(§1) MIC was determined by broth microdilution according to CLSI guidelines. The test medium for most species was Mueller–Hinton broth (MHB). Bacteria were grown overnight to early stationary phase and adjusted in MHB to 5.0 × 10^5 c.f.u. mL^−1 in the wells of 96-well microtiter plates (Falcon® 96-Well Flat-Bottom Microplate, Tissue Culture-Treated), mixed with varying concentrations of test compounds and incubated at 37 °C for 24 h. Cell growth was evaluated by measuring the optical density at 595 nm (Thermo Scientific Multiskan FC multiplate photometer) (Waltham, MA, USA), and the MIC was defined as the lowest compound concentration at which no bacterial growth was observed. MHBs containing 10% fetal bovine serum (Gibco), 21 mM MgCl, or 1.0 mg mL^−1 LPS (lipopolysaccharides from E. coli O55:B5, Sigma-Aldrich) was used to test their inhibitory effects."}, "[2]": {"test_system": "Pseudomonas aeruginosa PAO1", "assay_type": "cell-based", "protocol": "as §1"}, "[3]": {"test_system": "Colistin-resistant E. coli (E. coli ATCC 25922 carrying mcr-1)", "assay": "MIC by broth microdilution", "assay_type": "cell-based, Escherichia coli", "conditions": "MHB, 37 °C, 24 h", "protocol": "as §1"}, "E. coli ATCC 25922": {"test_system": "E. coli ATCC 25922", "assay": "Resistance acquisition during serial passaging", "assay_type": "cell-based, Escherichia coli", "conditions": "subinhibitory concentrations, 30-day period, MHB, 37 °C, quadruplicate", "protocol": "E. coli ATCC 25922 was inoculated into MHB overnight at 37 °C with continuous shaking. Cells were diluted 10,000 times in MHB to about 1 × 10^6 c.f.u. mL^−1. Ten µL aliquots were drawn to a 96-well plate containing 90 µL of serially diluted brevicidine, laterocidine, and ciprofloxacin, at final concentrations of 0.5×, 1×, 1.5×, 2×, and 4× MIC. […] Plates with bacteria were incubated at 37 °C without shaking. […] This process was repeated for 30 days, and the final MIC was confirmed by the same antibacterial assay as the one described above. The experiment was performed in quadruplicate, and on each day, the sample that developed the highest resistance was measured to plot the curve. For single-step resistance, E. coli ATCC 25922 cells at 10^8 c.f.u. were plated onto Mueller–Hinton agar containing 4× MIC of brevicidine."}, "[4]": {"assay": "Peptide binding to LPS by isothermal titration calorimetry", "set-up": "species or system Escherichia coli", "conditions": "37 °C, 20 mM HEPES pH 7.0", "protocol": "Microcalorimetric experiments of peptide binding to LPS were performed on an MCS isothermal titration calorimeter (Microcal, Northampton, MA) at 37 °C. LPS was prepared as a 50 µM aqueous suspension in 20 mM HEPES buffer (pH 7.0) by suspension, sonication, and temperature cycling between 5 and 70 °C. This suspension was stored at 4 °C overnight prior to use. Aliquots of 100 µM peptide solutions (brevicidine and polymyxin B) were prepared in the same buffer and all solutions were degassed prior to use by stirring under vacuum for 5 min at 37 °C. After thermal equilibration, 5 µL aliquots of the peptide solution were added every 3 min into the lipid-containing cell at 37 °C with constant stirring. The change in heat during the titration steps was registered in real time and raw data were processed using the Origin® 7 software provided with the instrument. In control experiments, the corresponding peptide solution (or LPS solution) was injected into the buffer without LPS (or without peptide)."}, "[5]": {"test_system": "Staphylococcus aureus (MRSA)", "assay_type": "cell-based", "conditions": "Supplementary Table 1; MRSA = Methicillin-resistant Staphylococcus aureus ATCC 43300", "protocol": "as §1"}, "Candida albicans": {"test_system": "Candida albicans", "assay_type": "cell-based", "conditions": "broth microdilution"}, "Saccharomyces cerevisiae": {"test_system": "Saccharomyces cerevisiae", "assay_type": "cell-based", "conditions": "broth microdilution"}, "[6]": {"test_system": "Enterobacter cloacae NRRL-B-413", "assay": "MIC by broth microdilution", "assay_type": "cell-based", "conditions": "Supplementary Table 1; En = Enterobacter cloacae NRRL-B-413", "protocol": "as §1"}, "Acinetobacter baumannii": {"test_system": "Acinetobacter baumannii", "assay": "MIC by broth microdilution", "assay_type": "cell-based", "conditions": "Supplementary Table 1", "protocol": "as §1"}, "Bacillus subtilis 168": {"test_system": "Bacillus subtilis 168", "assay": "MIC by broth microdilution", "assay_type": "cell-based", "conditions": "Supplementary Table 1; Bs = B. subtilis 168", "protocol": "as §1"}, "[7]": {"test_system": "Klebsiella pneumoniae NRRL-B-408", "assay": "MIC by broth microdilution", "assay_type": "cell-based", "conditions": "Supplementary Table 1; Kp = Klebsiella pneumoniae NRRL-B-408", "protocol": "as §1"}, "[8]": {"test_system": "K. pneumoniae NRRL-B-3521", "assay_type": "cell-based, Klebsiella pneumoniae", "conditions": "broth microdilution, MHB, 37 °C, 24 h", "protocol": "as §1"}, "E. cloacae NRRL-B-425": {"test_system": "E. cloacae NRRL-B-425", "assay_type": "cell-based, Enterobacter cloacae", "conditions": "broth microdilution, MHB, 37 °C, 24 h", "protocol": "as §1"}, "E. coli TOP10 cells": {"test_system": "E. coli TOP10 cells", "assay": "Time-kill assay", "assay_type": "cell-based, Escherichia coli", "protocol": "An overnight culture of E. coli TOP10 cells was diluted 1:10,000 in MHB and incubated at 37 °C with agitation at 180 rpm for 2 h (early exponential). The bacteria were then challenged with brevicidine (20 μg mL^−1), laterocidine (20 μg mL^−1), or polymyxin B (10 μg mL^−1) at ten times the MIC at room temperature without shaking. An untreated sample of cells was used as a negative control. At intervals, 10 μL aliquots were removed, centrifuged at 10,000 × g for 1 min and resuspended in 1.0 mL of sterile PBS. Tenfold serially diluted suspensions were plated on MHB agar plates and incubated at 37 °C overnight. Colonies were counted and the number of c.f.u. per mL was calculated. For analysis of lysis, 300 μL of culture (OD600 = 1.0) were treated with antibiotics at ten times the MIC for 24 h. Experiments were performed in triplicate."}}, "note": "Like-named read-outs stand apart in the source and are kept apart here. Where a SMILES comes first, the peptide text is derived from it. Bridges are numbered along the chain shown (N, C = ends). [ ]: non-standard residue; d: D form. The star is where a group is joined. X1 = CC[C@H](C)CCCCC(=O)*; Dab = NCC[C@H](N)C(=O)O"}
{"smiles": "CC[C@H](C)CCCCC(=O)N[C@@H](CCN)C(=O)N[C@H](C(=O)N[C@@H](CCN)C(=O)N[C@H]1CCNC(=O)[C@H]([C@@H](C)O)NC(=O)[C@H](CCN)NC(=O)[C@H](CCN)NC(=O)[C@H](CC(C)C)NC(=O)[C@@H](CC(C)C)NC(=O)[C@H](CCN)NC1=O)[C@@H](C)O", "note": "[Colistin, reference compound] (X1-[Dab]T[Dab][Dab][Dab][dL]L[Dab][Dab]T; lactam 4-C (inferred); N-terminus assumed)", "values": [{"measurement": "MIC", "setting": "[1]; broth microdilution (CLSI), MHB, 5.0 × 10^5 c.f.u. mL^−1, 37 °C, 24 h, OD 595 nm", "value": 2, "unit": "µg/mL"}, {"measurement": "MIC", "setting": "[2]; broth microdilution, MHB, 37 °C, 24 h", "value": 1, "unit": "µg/mL"}, {"measurement": "MIC", "setting": "[3]", "value": 16, "unit": "µg/mL"}]}
{"smiles": "O=C(O)c1cn(C2CC2)c2cc(N3CCNCC3)c(F)cc2c1=O", "note": "[ciprofloxacin, reference compound]", "values": [{"measurement": "resistance development during serial passaging", "setting": "E. coli ATCC 25922", "value": "developed resistance"}]}
{"smiles": "CC[C@H](C)CCCCC(=O)N[C@@H](CCN)C(=O)N[C@H](C(=O)N[C@@H](CCN)C(=O)N[C@H]1CCNC(=O)[C@H]([C@@H](C)O)NC(=O)[C@H](CCN)NC(=O)[C@H](CCN)NC(=O)[C@H](CC(C)C)NC(=O)[C@@H](Cc2ccccc2)NC(=O)[C@H](CCN)NC1=O)[C@@H](C)O", "note": "[Polymyxin B, reference compound] (X1-[Dab]T[Dab][Dab][Dab][dF]L[Dab][Dab]T; lactam 4-C (inferred); N-terminus assumed)", "values": [{"measurement": "MIC, Ec", "setting": "[1]; Supplementary Table 1, Ec = Escherichia coli ATCC 25922", "value": 1, "unit": "µg/mL"}, {"measurement": "binding to LPS (ITC)", "setting": "[4]", "value": "strong binding to LPS"}, {"measurement": "MIC, MRSA", "setting": "[5]", "value": 32, "unit": "µg/mL"}, {"measurement": "MIC, Pa", "setting": "[2]; Supplementary Table 1, Pa = Pseudomonas aeruginosa PAO1", "value": 1, "unit": "µg/mL"}, {"measurement": "MIC", "setting": "Candida albicans", "value": ">64", "unit": "µg/mL"}, {"measurement": "MIC", "setting": "Saccharomyces cerevisiae", "value": ">64", "unit": "µg/mL"}, {"measurement": "MIC, En", "setting": "[6]", "value": 8, "unit": "µg/mL"}, {"measurement": "MIC, Ab", "setting": "Acinetobacter baumannii", "value": 4, "unit": "µg/mL"}, {"measurement": "MIC, Bs", "setting": "Bacillus subtilis 168", "value": 4, "unit": "µg/mL"}, {"measurement": "MIC, Kp", "setting": "[7]", "value": 16, "unit": "µg/mL"}, {"measurement": "MIC", "setting": "[3]", "value": 16, "unit": "µg/mL"}, {"measurement": "MIC", "setting": "[8]", "value": 2, "unit": "µg/mL"}, {"measurement": "MIC", "setting": "E. cloacae NRRL-B-425", "value": 64, "unit": "µg/mL"}, {"measurement": "time to kill all cells in time-kill assay", "setting": "E. coli TOP10 cells; ten times the MIC (polymyxin B 10 μg mL^−1)", "value": "≤ 30", "unit": "min"}, {"measurement": "cell viability in time-kill assay", "setting": "E. coli TOP10 cells; ten times the MIC, early exponential cells, room temperature, c.f.u. counts, triplicate", "value": "significantly reducing the viable cell population after 5 min"}]}
{"smiles": "C[C@H]1COc2c(N3CCN(C)CC3)c(F)cc3c(=O)c(C(=O)O)cn1c23", "note": "[Levofloxacin]", "values": [{"measurement": "MIC", "setting": "[1]; Escherichia coli, ATCC25922, positive control of the mouse thigh model infected with E. coli ATCC 25922, strain for MIC not stated explicitly, read-out: MIC", "value": 0.032, "unit": "µg/mL"}]}
